Read-outs that look alike come from different tables or passages of the source.
Key:
[1] = Solubility in water, 24 hours stirring at ambient temperature, HPLC analysis; format: physicochemical; details: for solubility at 24 h: thermodynamic from solid
Experimental: A solution containing 140 mg of the compound obtained in Example 1 in 7 ml of water is stirred for 24 hours at ambient temperature. After filtration using an Acrodisc GJHP 0.45[…] μm, the solution is analysed by HPLC.

[2] = Constant surface area (intrinsic) dissolution kinetics at pH 2; format: physicochemical; details: for dissolution kinetics: pH 2 (0.01N HCl), ambient temperature, pellets of 0.075 cm^2, 100 rpm
Experimental: The constant surface area dissolution kinetics (or intrinsic dissolution kinetics) of the product of Example 1 were determined at ambient temperature at pH 2 (10 mL of 0.01N HCl) using a μDiss dissolution apparatus and pellets of 0.075 cm^2, prepared by compression at 90 bars, for 2 minutes at a stirring speed of 100 rpm.
The product of Example 1 dissolves with kinetics of 23 μg·s^−1·cm^−2+/−11%. By way of comparison, the dissolution kinetics of the corresponding hydrochloride are 1.6 μg·s^−1·cm^−2. The methanesulphonate therefore dissolves about 14 times faster than the corresponding hydrochloride.

[3] = Purity and stability under denaturing conditions (HPLC, X-ray diffractogram, DSC); format: physicochemical
Experimental: The compound of formula (II) according to the invention has excellent stability over time even under denaturing conditions: at 25° C./60% relative humidity, at 25° C./90% relative humidity, at 30° C./65% relative humidity, at 40° C./75% relative humidity, or at 50° C., the compound of formula (II) is unchanged after 6 months.
EXAMPLE 2: PURITY AND STABILITY OF 3[(3-{[4-(4-MORPHOLINYLMETHYL)-1H-PYRROL-2-YL]METHYLENE}-2-OXO-2,3-DIHYDRO-1H-INDOL-5-YL)METHYL]-1,3-THIAZOLIDINE-2,4-DIONE METHANESULPHONATE, Z ISOMER, UNDER DENATURING CONDITIONS

cancer cells = details: cited from earlier work
[4] = After 6 months, 25° C./60% relative humidity
[5] = After 6 months, 25° C./90% relative humidity
[6] = After 6 months, 30° C./65% relative humidity
[7] = After 6 months, 40° C./75% relative humidity

With `Cl.O=C1Nc2ccc(CN3C(=O)CSC3=O)cc2/C1=C/c1cc(CN2CCOCC2)c[nH]1` (single isomer, unassigned) [hydrochloride of 3-[(3-([4-{(4-morpholinylmethyl)-1H-pyrrol-2-yl]methylene}-2-oxo-2,3-dihydro-1H-indol-5-yl)methyl]-1,3-thiazolidine-2,4-dione, Z isomer, reference compound] the solubility ([1]; as the salt) was 4.3 mg/mL, the “solubility in terms of the base equivalent” value ([1]; base equivalent) was 4 mg/mL and the dissolution kinetics [2] was 1.6 μg·s^−1·cm^−2.

In the case of `O=C1Nc2ccc(CN3C(=O)CSC3=O)cc2C1=Cc1cc(CN2CCOCC2)c[nH]1` [Example 1, 3-[(3-{[4-(4-MORPHOLINYLMETHYL)-1H-PYRROL-2-YL]METHYLENE}-2-OXO-2,3-DIHYDRO-1H-INDOL-5-YL)METHYL]-1,3-THIAZOLIDINE-2,4-DIONE METHANESULPHONATE, Z ISOMER], the solubility at 24 h ([1]; as the salt, read-out: solubility) is reported as 14.7 mg/mL, the solubility at 24 h ([1]; base equivalent, read-out: solubility in terms of the base equivalent) is reported as 12.1 mg/mL and the “DSC (thermogram)” value [3, 4] is reported as “unchanged”. For the same compound, the “HPLC (% Example 1)” value [3, 4] was 99.8%, the “XR (diffractogram)” value [3, 4] was “unchanged” and the “DSC (thermogram)” value [3, 5] was “unchanged”. For the same compound, the “HPLC (% Example 1)” value [3, 5] was 99.8%, the “XR (diffractogram)” value [3, 5] was “unchanged” and the “DSC (thermogram)” value [3, 6] was “unchanged”. For the same compound, the “HPLC (% Example 1)” value [3, 6] was 99.8%, the “XR (diffractogram)” value [3, 6] was “unchanged” and the “DSC (thermogram)” value [3, 7] was “unchanged”. The “HPLC (% Example 1)” value [3, 7] was 99.8%, the “XR (diffractogram)” value [3, 7] was “unchanged” and the “DSC (thermogram)” value ([3]; After 6 months, 50° C.) was “unchanged”. For the same compound, the “HPLC (% Example 1)” value ([3]; After 6 months, 50° C.) was 99.8%, the “XR (diffractogram)” value ([3]; After 6 months, 50° C.) was “unchanged” and the “HPLC (% Example 1)” value ([3]; t = 0) was 99.8%. The dissolution kinetics [2] was 23 μg·s^−1·cm^−2 and the “dissolution rate relative to the corresponding hydrochloride” value ([2]; pH 2, ambient temperature) was “about 14 times faster”.

For `O=C1Nc2ccc(CN3C(=O)CSC3=O)cc2C1=Cc1cc(CN2CCOCC2)c[nH]1` [3-[(3-{[4-(4-morpholinylmethyl)-1H-pyrrol-2-yl]methylene}-2-oxo-2,3-dihydro-1H-indol-5-yl)methyl]-1,3-thiazolidine-2,4-dione], the “ability to inhibit the migration of cancer cells” value (cancer cells) is given as “has the ability to inhibit the migration of cancer cells”.

For `CS(=O)(=O)O.O=C1Nc2ccc(CN3C(=O)CSC3=O)cc2C1=Cc1cc(CN2CCOCC2)c[nH]1` [compound of formula (II), 3-[(3-{[4-(4-morpholinylmethyl)-1H-pyrrol-2-yl]methylene}-2-oxo-2,3-dihydro-1H-indol-5-yl)methyl]-1,3-thiazolidine-2,4-dione methanesulphonate], the “stability over time under denaturing conditions” value ([3]; after 6 months at 25° C./60% RH, 25° C./90% RH, 30° C./65% RH, 40° C./75% RH or 50° C.) was “unchanged”.

Reference: patent US10245270B2, “Salt of 3-[(3-{[4-(4-morpholinylmethyl)-1H-pyrrol-2-yl]methylene}-2-oxo-2,3-dihydro-1H-indol-5-yl)methyl]-1,3-thiazolidine-2,4-dione, its preparation, and formulations containing it” (LES LABORATOIRES SERVIER, priority 2013, dated 2019)
